From patent publication US11028058B2, “Heterocyclic compounds as adenosine antagonists” (NUVATION BIO INC., priority 2017, dated 2021)

Legend:
[1] = target: adenosine A3 receptor (CHO-K1-A3 cell membranes) (Homo sapiens (Human), UniProt P0DMS8); experiment: Adenosine A3 radioligand binding competition assay (125I-AB-MECA)
Method: (§1) Binding of selected compounds to the adenosine A2A, A1, A2B, and A3 receptors was tested using a binding competition assay.
(§2) The general protocol for the radioligand binding competition assay was as follows. Competition binding was performed in duplicate in the wells of a 96 well plate (Master Block, Greiner, 786201) containing binding buffer (optimized for each receptor), membrane extracts (amount of protein/well optimized for each receptor), radiotracer (final concentration optimized for each receptor), and test compound. Nonspecific binding was determined by co-incubation with 200-fold excess of cold competitor. The samples were incubated in a final volume of 0.1 mL at 25° C. for 60 minutes and then filtered over filter plates. Filters were washed six times with 0.5 mL of ice-cold washing buffer (optimized for each receptor) and 50 μL of Microscint 20 (Packard) were added on each filter. The filter plates were sealed, incubated 15 min on an orbital shaker and scintillation counted with a TopCount for 30 sec/filter.
For the adenosine A3 radioligand binding competition assay, the following reagents were used:
CHO-K1-A3 cell membranes, 1.5 μg/well; a binding buffer comprising HEPES 25 mM pH 7.4, MgCl2 5 mM, CaCl2 1 mM, 0.5% BSA; a wash buffer comprising HEPES 25 mM pH 7.4, MgCl2 5 mM, CaCl2 1 mM; a Unifilter GF/C—treated for 2 h with 0.5% BS; and 0.4 nM of ^125I-AB-MECA as the tracer.

[2] = target: recombinant human A2A receptor (Homo sapiens (Human), UniProt P29274); experiment: GTPγ35S scintillation proximity assay for A2A receptor; format: biochemical; settings: read-out: A2A γGTP assay (% Inh Avg) @ 100 nM
recombinant human A2A receptor, sequence (P29274 whole entry): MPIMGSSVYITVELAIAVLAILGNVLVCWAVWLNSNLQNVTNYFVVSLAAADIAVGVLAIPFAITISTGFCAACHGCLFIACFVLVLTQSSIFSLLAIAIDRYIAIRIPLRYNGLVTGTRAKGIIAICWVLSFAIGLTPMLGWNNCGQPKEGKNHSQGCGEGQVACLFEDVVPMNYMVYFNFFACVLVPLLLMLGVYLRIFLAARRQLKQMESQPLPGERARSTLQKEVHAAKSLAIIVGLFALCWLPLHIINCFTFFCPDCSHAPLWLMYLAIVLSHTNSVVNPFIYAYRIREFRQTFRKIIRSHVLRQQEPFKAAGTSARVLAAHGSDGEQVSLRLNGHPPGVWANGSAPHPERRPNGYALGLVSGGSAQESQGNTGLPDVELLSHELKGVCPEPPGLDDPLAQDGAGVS
Method: For antagonist testing, membranes extracts were prepared from HEK-293 cells expressing recombinant human A2A receptor, were mixed with GDP (volume:volume) and were incubated in assay buffer comprising 20 mM HEPES pH 7.4; 100 mM NaCl, 10 μg/mL saponin, 5 mM MgCl2 for at least 15 min on ice. In parallel, GTPγ[^35S] was mixed with the beads (volume:volume) just before starting the reaction. The following reagents were successively added in the wells of an Optiplate (Perkin Elmer): 25 μL of test compound or reference ligand, 25 μL of the membranes: GDP mix, 25 μL of reference agonist at historical EC80 and 25 μL of GTPγ[^35S] (PerkinElmer NEG030X), diluted in assay buffer to give 0.1 nM. The plate was incubated at room temperature for 1 hour. Then, 20 μL of IGEPAL was added for 30 minutes at room temperature. Following this incubation, 20 μL of beads (PVT-anti rabbit (PerkinElmer, RPNQ0016)), diluted in assay buffer at 50 mg/mL (0.5 mg/10 μL) and 20 μL of an Anti-GαS/olf antibody were added for a final incubation of 3 hours at room temperature. Then, the plates were centrifuged for 10 min at 2000 rpm, incubated at room temperature for 1 hour and counted for 1 min/well with a PerkinElmer TopCount reader.

[3] = target: adenosine A2B receptor (HEK-293-A2B cell membranes) (Homo sapiens (Human), UniProt P29275); experiment: Adenosine A2B radioligand binding competition assay (3H-DPCPX)
adenosine A2B receptor (HEK-293-A2B cell membranes), sequence (P29275 whole entry): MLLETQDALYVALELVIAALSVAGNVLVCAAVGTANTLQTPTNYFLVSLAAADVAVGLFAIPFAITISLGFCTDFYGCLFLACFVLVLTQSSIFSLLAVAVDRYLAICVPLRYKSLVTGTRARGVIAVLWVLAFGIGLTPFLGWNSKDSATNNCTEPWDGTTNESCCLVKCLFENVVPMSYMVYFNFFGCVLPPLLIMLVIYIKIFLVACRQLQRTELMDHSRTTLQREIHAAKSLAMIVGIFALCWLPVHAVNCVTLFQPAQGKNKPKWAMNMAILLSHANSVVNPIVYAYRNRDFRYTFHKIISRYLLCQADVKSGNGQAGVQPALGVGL
Method: as §1
as §2, with “sec/filter. […]” for “sec/filter.”

[4] = target: adenosine A1 receptor (CHO-K1-A1 cell membranes) (Homo sapiens (Human), UniProt P30542); experiment: Adenosine A1 radioligand binding competition assay (3H-DPCPX)
adenosine A1 receptor (CHO-K1-A1 cell membranes), sequence (P30542 whole entry): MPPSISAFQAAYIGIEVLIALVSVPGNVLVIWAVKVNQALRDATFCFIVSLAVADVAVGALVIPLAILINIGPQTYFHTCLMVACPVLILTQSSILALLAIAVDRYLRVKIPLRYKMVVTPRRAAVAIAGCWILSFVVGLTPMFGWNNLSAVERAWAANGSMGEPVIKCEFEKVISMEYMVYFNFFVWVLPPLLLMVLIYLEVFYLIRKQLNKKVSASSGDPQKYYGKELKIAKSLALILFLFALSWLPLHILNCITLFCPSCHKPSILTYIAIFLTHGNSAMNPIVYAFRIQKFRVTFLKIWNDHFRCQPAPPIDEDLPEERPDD
Method: as §1
as §2, with “sec/filter. […]” for “sec/filter.”

[5] = target: HEK-293 cells expressing human recombinant adenosine A2A receptor (Homo sapiens (Human), UniProt P29274); experiment: cAMP assay, Assay 1 (HTRF kit); format: cell-based; settings: for inhibition at 0.1 µM: HEK293, 100 nM, read-out: A2a cAMP (% inh @ 100 nM)
HEK-293 cells expressing human recombinant adenosine A2A receptor, sequence (P29274 whole entry): as the sequence (P29274 whole entry) above
Method: The functional activity of compounds was tested using one of the two assays to detect the present of cAMP. Activation of G-protein coupled receptors (such as A2A) results in activation of adenylcyclase which converts ATP into cAMP which is used as a downstream signaling molecule. Therefore, molecules which act as GPCR (or specifically A2A receptor) antagonists cause a decrease in intracellular cAMP concentration.
Both assays used HEK-293 cells expressing human recombinant adenosine A2A receptor were grown prior to the test in media without antibiotic.
12 μL of cells were mixed with 6 μL of the test compound at increasing concentrations and then incubated for 10 min. Thereafter 6 μL of the reference agonist was added at a final concentration corresponding to the historical EC80. The plates were then incubated for 30 min at room temperature. After addition of the lysis buffer and 1 hour incubation, cAMP concentrations were estimated, according to the manufacturer specification, with the HTRF® kit.

adenosine A2A receptor = adenosine A2A receptor (Homo sapiens (Human), UniProt P29274); experiment: A2A adenosine receptor radioligand binding competition assay (filter plates)
adenosine A2A receptor, sequence (P29274 whole entry): as above
Method: as §1, §2
For the A2A adenosine receptor radioligand binding assay, the following modifications were made to the general protocol. GF/C filters (Perkin Elmer, 6005174), presoaked in 0.01% Brij for 2 h at room temperature were used. Filters were washed six times with 0.5 mL of ice-cold washing buffer (50 mM Tris pH 7.4) and 50 μL of Microscint 20 (Packard) was added in each well. The plates were then incubated for 15 min on an orbital shaker and then counted with a TopCount™ for 1 min/well. Another radioligand binding assay was used to evaluate the binding affinity for the adenosine A2A receptor assay was performed in duplicate in the wells of a 384 plate. Assay buffer contained DPBS 500 mM, MgCl2 0.1 mM, and 1% DMSO. Membrane-bead suspension was prepared by mixing 25.98 μL of human adenosine A2A membrane preparation (Perkin Elmer, RBHA2AM400UA) at 33.4 μg/mL, 28 μL of ADA at 20 μg/mL, and 932 μL of SPA beads at 3.33 mg/mL) and incubated the mixture for 20 min at room temperature. Mixed 20 μL of radiotracer (^3H-SCH 58261) at 15 nM to each well containing test articles at various concentrations and centrifuge the plate at 1000 rpm for 1 minute. Added 30 μL of the membraine-bead suspension to each well. Sealed the plates and incubated for 1 hr at room temperature with vigorous mixing on a plate mixer. Plates were read on Microbeta^2 (Perkin Elmer, 2450-0010).

adenosine A3 receptor (CHO-K1-A3 cell membranes), sequence (P0DMS8 whole entry): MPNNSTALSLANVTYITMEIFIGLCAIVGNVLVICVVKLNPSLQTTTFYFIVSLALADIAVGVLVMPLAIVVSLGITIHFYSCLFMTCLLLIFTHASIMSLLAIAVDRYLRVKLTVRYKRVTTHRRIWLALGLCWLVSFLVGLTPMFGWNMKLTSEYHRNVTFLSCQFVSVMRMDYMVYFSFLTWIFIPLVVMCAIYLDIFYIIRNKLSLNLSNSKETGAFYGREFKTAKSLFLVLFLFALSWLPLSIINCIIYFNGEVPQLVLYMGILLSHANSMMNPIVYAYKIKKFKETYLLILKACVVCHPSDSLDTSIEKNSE

Nc1cnc(-c2ccc(O)c(Cl)c2)c(-c2ccccc2)n1 [Compound 1.1, 4-(5-amino-3-phenylpyrazin-2-yl)-2-chlorophenol]
Radioligand binding competition assay % residual binding @ 300 nM (A3) [1]: 96%
inhibition at 0.1 µM [2]: 82%
Radioligand binding competition assay % residual binding @ 300 nM (A2B) [3]: −9%
Radioligand binding competition assay % residual binding @ 300 nM (A1) [4]: −3%
IC50 [5]: 6 nM
inhibition at 0.1 µM [5]: 97%
A2A radioligand binding competition assay % residual binding @ 100 nM (adenosine A2A receptor): 30%
A2A radioligand binding competition assay % residual binding @ 1000 nM (adenosine A2A receptor): 12%
IC50 (adenosine A2A receptor; Table B1-1): 57 nM

Nc1nc(-c2ccccc2)c(-c2ccc3ncccc3c2)nc1Br [Compound No. 1.14, 3-bromo-6-phenyl-5-(quinolin-6-yl)pyrazin-2-amine]
inhibition at 0.1 µM [5]: 100%
A2A radioligand binding competition assay % residual binding @ 100 nM (adenosine A2A receptor): 76%
A2A radioligand binding competition assay % residual binding @ 300 nM (adenosine A2A receptor; 300 nM): 48%
A2A radioligand binding competition assay % residual binding @ 1000 nM (adenosine A2A receptor): 29%
A2A radioligand binding competition assay % residual binding @ 3000 nM (adenosine A2A receptor): 12%

Nc1cnc(-c2ccc3ncccc3c2)c(-c2ccc(F)cc2)n1 [Compound No. 1.15, 6-(4-fluorophenyl)-5-(quinolin-6-yl)pyrazin-2-amine]
inhibition at 0.1 µM [5]: 0%
A2A radioligand binding competition assay % residual binding @ 3000 nM (adenosine A2A receptor): 104/ND/ND/ND %

Nc1cnc(-c2ccc3nccnc3c2)c(-c2ccccc2)n1 [Compound No. 1.16, 6-phenyl-5-quinoxalin-6-yl-pyrazin-2-amine]
inhibition at 0.1 µM [5]: 0%
A2A radioligand binding competition assay % residual binding @ 3000 nM (adenosine A2A receptor): 80/ND/ND/ND %

Nc1cnc(-c2cc(Cl)c3ncccc3c2)c(-c2ccccc2)n1 [Compound No. 1.17, 5-(8-chloroquinolin-6-yl)-6-phenylpyrazin-2-amine]
inhibition at 0.1 µM [5]: 99%
A2A radioligand binding competition assay % residual binding @ 3000 nM (adenosine A2A receptor): 8/ND/ND/ND %

Nc1cnc(-c2ccc3ocnc3c2)c(-c2ccccc2)n1 [Compound No. 1.18, 5-(benzo[d]oxazol-5-yl)-6-phenylpyrazin-2-amine]
inhibition at 0.1 µM [5]: 14%
A2A radioligand binding competition assay % residual binding @ 3000 nM (adenosine A2A receptor): 100/ND/ND/ND %

Cc1ccc(-c2nc(N)cnc2-c2ccc3ncccc3c2)o1 [Compound No. 1.20, 6-(5-methylfuran-2-yl)-5-(quinolin-6-yl)pyrazin-2-amine]
inhibition at 0.1 µM [5]: 81%
A2A radioligand binding competition assay % residual binding @ 3000 nM (adenosine A2A receptor): 3/ND/ND/ND %

Cc1ccc(-c2nc(N)cnc2-c2cc(Cl)c3ncccc3c2)o1 [Compound No. 1.21, 5-(8-chloroquinolin-6-yl)-6-(5-methylfuran-2-yl)pyrazin-2-amine]
inhibition at 0.1 µM [5]: 100%
A2A radioligand binding competition assay % residual binding @ 3000 nM (adenosine A2A receptor): 5/ND/ND/ND %

Nc1cnc(-c2ccc3ncccc3c2)c(-n2cccn2)n1 [Compound No. 1.22, 6-(1H-pyrazol-1-yl)-5-(quinolin-6-yl)pyrazin-2-amine]
inhibition at 0.1 µM [5]: 24%
A2A radioligand binding competition assay % residual binding @ 3000 nM (adenosine A2A receptor): 39/ND/ND/ND %
